Experimental data reported in ChEMBL document CHEMBL5338747, “Discovery of Quaternized Pyridine-Thiazole-Pleuromutilin Derivatives with Broad-Spectrum Antibacterial and Potent Anti-MRSA Activity” (J Med Chem, 2023).
Calls of active or inactive are those of the source. The calls are words filed in the database; no cut-off is given here.

How the values were obtained:
[1] = system: Salmonella enterica; assay: Antibacterial activity against Salmonella enterica ATCC 14028 assessed as inhibition of bacterial growth incubated for 24 hrs by broth microdilution method; type: functional
[2] = system: Mycoplasma genitalium; assay: Anti-mycoplasma activity against Mycoplasma genitalium G37 ATCC33530 assessed as inhibition of mycoplasma growth measured after 7 days by broth microdilution method; type: functional; settings: Mycoplasmoides genitalium, G37 ATCC33530, 168 h; time 7 day
[3] = system: Cell membrane; assay: Disruption of bacterial cell membrane in Escherichia coli ATCC 25922 assessed as increase in fluorescence intensity by DiBAC4(3) dye based fluorescence analysis; type: subcellular
[4] = system: Cell membrane; assay: Disruption of bacterial cell membrane in methicillin-resistant Staphylococcus aureus ATCC 33591 assessed as increase in number of surface folds and atrophy at MIC incubated for 4 hrs by FESEM analysis; type: subcellular
[5] = Volume of distribution at steady state in Sprague-Dawley rat at 1 mg/kg, iv by LC-MS analysis; type: ADME, organism-based; settings: in vivo, read-out: Vdss

With C=C[C@]1(C)C[C@@H](OC(=O)CSc2nc(-c3cc[n+](Cc4ccc(C)cc4)cc3)cs2)[C@]2(C)[C@H](C)CC[C@]3(CCC(=O)[C@H]32)[C@@H](C)[C@@H]1O.[Br-] the MIC [1] was 2 µg/mL, the MIC [2] was 0.015 µg/mL and the Activity [3] was “Dose-Dependent Effect”. For the same molecule, the Activity [4] was “Active” and the Vd [5] was 2.1 L/kg.
